Substitutions are numbered along the chain they refer to. Where a name gives a salt, the structure may show the parent alone.
Tests used:
Test in all cases: Thermostability assay (label free differential scanning fluorimetry)
Format in all cases: binding, H. sapiens
Details in all cases: 50 μM compound
DPAGT1 Leu168Pro = molecular target: T1, DPAGT1 Leu168Pro (Homo sapiens, UniProt Q9H3H5, L168P)
T1 construct: combined with the LIC-adapted primers to amplify the complete DPAGT1 gene, including the desired mutations; 6xHis purification tag with TEV site (N, cleaved yes); made in house; host or cells: Spodoptera frugiperda Sf9 insect cells (baculovirus)
T1 sequence (Q9H3H5 1-408 L168P): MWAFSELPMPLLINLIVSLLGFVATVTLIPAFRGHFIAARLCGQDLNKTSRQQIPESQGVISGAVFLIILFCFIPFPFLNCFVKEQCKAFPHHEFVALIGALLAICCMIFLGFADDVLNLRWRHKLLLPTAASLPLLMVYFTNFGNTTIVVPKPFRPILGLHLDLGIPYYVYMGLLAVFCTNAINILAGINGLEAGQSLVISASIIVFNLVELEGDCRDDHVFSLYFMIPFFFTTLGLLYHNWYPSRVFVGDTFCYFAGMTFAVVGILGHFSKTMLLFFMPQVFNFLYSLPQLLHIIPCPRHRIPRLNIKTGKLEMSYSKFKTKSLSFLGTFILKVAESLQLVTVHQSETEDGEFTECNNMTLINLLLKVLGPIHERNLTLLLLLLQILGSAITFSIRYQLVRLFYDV
Procedure: (§1) Samples with a volume of 40 μl were prepared containing 0.5 mg/ml protein and 50 μM compound or 5% DMSO in GFB. A glass capillary was dipped into each sample, with the capillary held horizontally to ensure that the capillary was full of the sample. The capillaries were placed on the capillary holder on the Nanotemper Prometheus. Technical triplicates of each sample were prepared, and each experiment was conducted with biological triplicates of each protein. PR.ThermControl software was used to run the experiment and analyse the data. A melting curve from 20 °C – 95 °C at 5 °C/min was performed. The minimum of the first derivative of the 330/350nm ratio was used to determine the Tm1/2.

DPAGT1 Arg301Cys = molecular target: T2, DPAGT1 Arg301Cys (Homo sapiens, UniProt Q9H3H5, R301C)
T2 construct: combined with the LIC-adapted primers to amplify the complete DPAGT1 gene, including the desired mutations; 6xHis purification tag with TEV site (N, cleaved yes); made in house; host or cells: Spodoptera frugiperda Sf9 insect cells (baculovirus)
T2 sequence (Q9H3H5 1-408 R301C): T1 sequence (Q9H3H5 1-408 L168P) with P168L, R301C
Procedure: as §1

DPAGT1 Val264Gly = molecular target: T3, DPAGT1 Val264Gly (Homo sapiens, UniProt Q9H3H5, V264G)
T3 construct: H. sapiens DPAGT1 (1-408, Val264Gly, N-terminal 6 x HIS tag, TEV cleavage site); 6xHis purification tag with TEV site (N, cleaved yes); made in house; host or cells: Spodoptera frugiperda Sf9 insect cells (baculovirus)
T3 sequence (Q9H3H5 1-408 V264G): T1 sequence (Q9H3H5 1-408 L168P) with P168L, V264G
Procedure: as §1

DPAGT1 WT = molecular target: T4, DPAGT1 WT (Homo sapiens, UniProt Q9H3H5)
T4 construct: H. sapiens DPAGT1 (1-408, N-terminal 6 x HIS tag, TEV cleavage site); 6xHis purification tag with TEV site (N, cleaved yes); made in house; host or cells: Spodoptera frugiperda Sf9 insect cells (baculovirus)
T4 sequence (Q9H3H5 1-408): T1 sequence (Q9H3H5 1-408 L168P) with P168L
Procedure: as §1

DPAGT1 Arg301His = molecular target: T5, DPAGT1 Arg301His (Homo sapiens, UniProt Q9H3H5, R301H)
T5 construct: combined with the LIC-adapted primers to amplify the complete DPAGT1 gene, including the desired mutations; 6xHis purification tag with TEV site (N, cleaved yes); made in house; host or cells: Spodoptera frugiperda Sf9 insect cells (baculovirus)
T5 sequence (Q9H3H5 1-408 R301H): T1 sequence (Q9H3H5 1-408 L168P) with P168L, R301H
Procedure: as §1

In the case of N[C@H]1[C@H](O[C@H]2O[C@H](CO)[C@@H](O)[C@H](O)[C@H]2N)O[C@H](C[C@@H](O)[C@H]2O[C@@H](n3ccc(=O)[nH]c3=O)[C@H](O)[C@@H]2O)[C@H](O)[C@@H]1O [TUN, α-D-glucosamine-(1”-11')-tunicamyl uracil dihydrochloride], the “Thermostability (Tm1/2) with added compound” value (“Thermostability” for short) (DPAGT1 Leu168Pro) is reported as 84.0±0.2 °C, the “Thermostability” value (DPAGT1 Arg301Cys) is reported as 80.9±0.5 °C and the “Thermostability” value (DPAGT1 Val264Gly) is reported as 82.6±0.1 °C. The “Thermostability” value (DPAGT1 WT) was 83.0±0.4 °C and the “Thermostability” value (DPAGT1 Arg301His) was 81.2±0.5 °C.

Reference: PMC6218659, “Structures of DPAGT1 Explain Glycosylation Disease Mechanisms and Advance TB Antibiotic Design” (Cell, 2018)
